The target of assay [1] is T1, GPR17 (Homo sapiens, UniProt Q13304). The assay can be described thus: SRE-luciferase reporter assay in GPR17-expressed HeLa cells.
Another assay has as its target T2, GPR40 (Homo sapiens, UniProt O14842).
T2 construct: expressed in transfected cells; host or cells: GPR40 expression cells
Kind of assay: SRE-luciferase reporter assay in GPR40 expression cells used for control. The assay is classed as cell-based. The following applies: PBG 1000 μM. In general terms: A reporter such as luciferase makes a cellular process visible.

The target in assay [2] is T1, GPR17. The assay can be described thus: Suppression of forskolin-increased intracellular cAMP level in GPR17-expressed CHO cells. The assay is classed as cell-based. Also on record: expressed in transfected cells. The following applies: forskolin 2 μM, 30 minutes, ALA in various concentrations, FIG. 2.
Description: The GPR17-expressed CHO cells was incubated overnight and then washed with an assay medium (HBBBS supplemented with 0.1% bovine serum albumin and 0.2 mM IBMX, followed by incubation at 37° C. for 30 minutes under 5% CO2 conditions. ALA diluted with the assay medium in various concentrations and forskolin were added thereto in 2 μM, followed by incubation at 37° C. for 30 minutes under 5% CO2 conditions. The culture supernatant was discarded and the intracellular cAMP level was determined on a plate reader (EnVision, PerkinElmer), following the protocol of cAMP Screen Kit (Applied Biosystems).
The test system of assay [3] is SP-induced biting response (pain response). The assay can be described thus: Substance P-induced biting response after intrathecal administration to mice. It is filed as in vivo. The following applies: 0.66, 2.0 and 6.6 μg/mouse intrathecal with SP 10 μg, male ICR mice, counted for one minute, FIG. 3.
Description: In order to examine effects of 5-aminolevulic acid (ALA) on pain, ALA was mixed with substance P (SP) and the mixture was intrathecally administered. Male ICR mice of 5 weeks age for intrathecal administration received incision on the dorsal tail and habituated at least for an hour. Thereafter, SP (10 μg) alone or a mixture of SP (10 μg) and ALA was intrathecally administered to the mice (5 μL/mouse) between the L5 and L6 level of the spinal cord, under no anesthesia. Immediately after administration, the number of times that the mice bit the underbody mutually was counted for one minute and the number was made an indicator of false pain response by SP.

The values that follow come from patent US7833722B2, “Ligands for G protein-coupled receptor protein and use thereof” (Takeda Pharmaceutical Company Limited, priority 2004, dated 2010).

T1 sequence (Q13304 29-367): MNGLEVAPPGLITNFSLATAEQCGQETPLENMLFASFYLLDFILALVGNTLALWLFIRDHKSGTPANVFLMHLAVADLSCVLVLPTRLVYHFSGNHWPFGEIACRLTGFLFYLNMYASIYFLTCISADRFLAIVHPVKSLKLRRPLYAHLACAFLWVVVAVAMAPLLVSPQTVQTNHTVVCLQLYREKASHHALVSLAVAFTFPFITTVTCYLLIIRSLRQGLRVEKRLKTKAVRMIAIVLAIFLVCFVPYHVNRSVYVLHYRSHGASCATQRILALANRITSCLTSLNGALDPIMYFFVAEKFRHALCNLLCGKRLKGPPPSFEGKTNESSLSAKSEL
T2 sequence (O14842 whole entry, species assumed): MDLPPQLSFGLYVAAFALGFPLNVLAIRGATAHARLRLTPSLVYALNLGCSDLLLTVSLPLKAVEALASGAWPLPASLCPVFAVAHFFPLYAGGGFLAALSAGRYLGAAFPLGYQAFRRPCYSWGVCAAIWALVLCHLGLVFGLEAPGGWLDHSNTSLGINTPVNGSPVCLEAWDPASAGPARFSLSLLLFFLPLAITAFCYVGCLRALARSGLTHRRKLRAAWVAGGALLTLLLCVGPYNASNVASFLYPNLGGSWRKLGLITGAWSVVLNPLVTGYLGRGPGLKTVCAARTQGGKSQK

`NCc1[nH]cc(CCC(=O)O)c1CC(=O)O` [PBG, porphobilinogen]: at GPR17 [1] (PBG 1000 μM), the “Increased luciferase activity (cps) in the GPR17 expression cells by PBG” value stood at 37999 cps and the “luciferase activity in the GPR17 expression cells (in words)” value is recorded as “increased luciferase activity”. Also, the “luciferase activity (cps), GPR40 (control)” value at GPR40 is on record as 3769 cps.

Turning to `NCC(=O)CCC(=O)O` [ALA, 5-aminolevulinic acid], on GPR17 [2], the “intracellular cAMP level increased by forskolin addition” value is “dose-dependent and specific decrease”. In addition, on GPR17 [1] (ALA 200 μM), the “luciferase activity in the GPR17-expressed cells (in words)” value was “increased luciferase activity”. In addition, the “Increased Luciferase Activity (cps) by ALA in GPR17-Expressed Cells” value at GPR17 [1] (ALA 200 μM, HeLa cells, 4 hours incubation) amounted to 6707 cps. The “effect on SP-induced biting response (pain response)” value in assay [3] is recorded as “significant suppression effect”.
